Key:
xanthine oxidase (XO) [1] = biological target: T1, xanthine oxidase (XO) (Bos taurus, UniProt P80457); assay: Assay of XO inhibitory modes of action (enzyme kinetics, Lineweaver-Burk plots); conditions: for Mode of Inhibition: Lineweaver-Burk plots
xanthine oxidase (XO) [2] = biological target: T1, xanthine oxidase (XO); assay: Assay of XO activity (uric acid formation determined by HPLC); format: biochemical; set-up: purchased Sigma-Aldrich Chemicals (St. Louis, MO, USA); conditions: for IC50: xanthine as substrate, 25 °C, pH 7.5, uric acid by HPLC; for XO inhibitory activity (in words): in vitro

T1 sequence (P80457 whole entry): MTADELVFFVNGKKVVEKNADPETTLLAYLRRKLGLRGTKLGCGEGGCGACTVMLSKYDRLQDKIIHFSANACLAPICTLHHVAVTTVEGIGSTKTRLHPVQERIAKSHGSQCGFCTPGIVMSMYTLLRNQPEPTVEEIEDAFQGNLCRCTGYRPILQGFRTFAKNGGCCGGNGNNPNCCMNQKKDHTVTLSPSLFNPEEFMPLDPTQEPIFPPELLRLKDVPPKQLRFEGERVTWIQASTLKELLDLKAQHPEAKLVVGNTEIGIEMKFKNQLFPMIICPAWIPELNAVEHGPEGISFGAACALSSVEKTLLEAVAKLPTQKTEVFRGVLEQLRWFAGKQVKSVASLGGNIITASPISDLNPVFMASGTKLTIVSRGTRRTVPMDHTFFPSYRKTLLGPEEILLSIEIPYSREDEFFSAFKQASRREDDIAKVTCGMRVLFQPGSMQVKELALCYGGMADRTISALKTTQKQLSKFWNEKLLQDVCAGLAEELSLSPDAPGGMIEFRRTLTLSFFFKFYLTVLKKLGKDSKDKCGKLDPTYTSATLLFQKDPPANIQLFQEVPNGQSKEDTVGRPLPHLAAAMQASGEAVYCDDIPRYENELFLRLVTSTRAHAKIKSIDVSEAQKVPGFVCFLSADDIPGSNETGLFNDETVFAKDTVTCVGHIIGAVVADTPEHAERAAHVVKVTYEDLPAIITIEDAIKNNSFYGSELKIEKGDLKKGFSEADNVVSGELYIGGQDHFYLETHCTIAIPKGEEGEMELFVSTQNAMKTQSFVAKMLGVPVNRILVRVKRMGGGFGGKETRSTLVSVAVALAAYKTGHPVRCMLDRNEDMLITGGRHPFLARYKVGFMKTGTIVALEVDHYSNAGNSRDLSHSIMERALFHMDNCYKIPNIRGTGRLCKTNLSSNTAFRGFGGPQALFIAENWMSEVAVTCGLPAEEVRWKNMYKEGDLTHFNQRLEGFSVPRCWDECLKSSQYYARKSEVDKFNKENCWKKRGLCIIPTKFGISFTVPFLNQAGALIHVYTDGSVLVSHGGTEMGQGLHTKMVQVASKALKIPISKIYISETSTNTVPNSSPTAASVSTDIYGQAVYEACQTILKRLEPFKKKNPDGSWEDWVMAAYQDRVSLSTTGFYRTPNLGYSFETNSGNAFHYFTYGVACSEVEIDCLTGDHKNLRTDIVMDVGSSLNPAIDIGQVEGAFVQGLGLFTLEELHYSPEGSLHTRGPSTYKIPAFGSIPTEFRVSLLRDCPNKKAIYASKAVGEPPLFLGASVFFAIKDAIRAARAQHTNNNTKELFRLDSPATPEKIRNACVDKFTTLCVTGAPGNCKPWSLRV

Row | SMILES | Mode of Inhibition (xanthine oxidase (XO) [1]) | Ki (xanthine oxidase (XO) [1]) | IC50 (xanthine oxidase (XO) [2]) | Mode of Inhibition (xanthine oxidase (XO) [1]; listed as apigenin) | Mode of Inhibition (xanthine oxidase (XO) [1]; listed as allopurinol) | XO inhibitory activity (in words) (xanthine oxidase (XO) [2])
1 | Oc1ncnc2[nH]ncc12 [Allopurinol, reference compound] | Competitive | – | – | – | competitive inhibitions | –
2 | COC(=O)[C@@H](Cc1ccc(O)c(O)c1)OC(=O)/C=C/c1ccc(O)c(O)c1 [Methyl rosmarinate, methyl rosmarinate] | Competitive | 2.85 µM | 26.6 µM | – | – | could significantly inhibit the production of uric acid
3 | O=c1cc(-c2ccc(O)cc2)oc2cc(O)cc(O)c12 [Apigenin, apigenin] | Mixed | 0.11 µM | 0.44 µM | mixed inhibition mode | – | could significantly inhibit the production of uric acid

Now from value to compound, other results behind:

Row | Mode of Inhibition (xanthine oxidase (XO) [1]) | Ki (xanthine oxidase (XO) [1]) | IC50 (xanthine oxidase (XO) [2]) | Mode of Inhibition (xanthine oxidase (XO) [1]; listed as apigenin) | SMILES | Mode of Inhibition (xanthine oxidase (XO) [1]; listed as allopurinol) | XO inhibitory activity (in words) (xanthine oxidase (XO) [2])
4 | – | 9.22 µM | 121 µM | – | O=C(O)/C=C/c1ccc(O)c(O)c1 [Caffeic acid, caffeic acid] | – | –
5 | Competitive | 26.2 µM | 91.7 µM | – | O=C(/C=C/c1ccc(O)c(O)c1)O[C@H](Cc1ccc(O)c(O)c1)C(=O)O [Rosmarinic acid, rosmarinic acid] | – | weak XO inhibitory activities
6 | Competitive | 5.05 µM | 31.3 µM | – | C=COC(=O)/C=C/c1ccc(O)c(O)c1 [Vinyl caffeate, vinyl caffeate] | – | could significantly inhibit the production of uric acid
